Measurements: the supplement of paper PMC4858399
Where a name gives a salt, the structure may show the parent alone.

Experiments:
[1] = system: Caenorhabditis elegans N2; experiment: mean nematode size ln(EXT) after 48 h, plate-adjusted (DMSO control set to 6) (ln(EXT), control-adjusted); higher = larger nematodes / less growth inhibition; details: exposure time 48 h
In short: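 Worms were measured individually for extinction on the Biosort after 48 h at 20°C. They began as synchronised C. elegans N2 L1 larvae in K-medium with killed OP50, 1% DMSO and 0.5–200 µM chemical. Once debris had been removed by a growth model, values were natural-logged and averaged per well to give mean size. The plate adjustment subtracted the vehicle control mean and added 6.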

[2] = system: Caenorhabditis elegans N2; experiment: lowest effective concentration for larval growth inhibition (size below effect threshold); higher = less potent; details: exposure time 48 h
In short: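 Each well of a 96-well plate received 50 C. elegans N2 L1 larvae, which grew for 48 h at 20°C in K-medium containing killed bacteria, 1% DMSO and the chemical at 0.5, 1, 5, 10, 50, 100 or 200 µM. A Biosort recorded the extinction of every worm as its size, and these readings were log-transformed and averaged per well. The lowest effective concentration is defined as the first dose at which the plate-adjusted mean size falls below the threshold and stays below it at all higher doses; that threshold is 5.665.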

| SMILES | mean nematode size ln(EXT) (ln) ([1]; 0.5 µM) | mean nematode size ln(EXT) (ln) ([1]; 1 µM) | mean nematode size ln(EXT) (ln) ([1]; 5 µM) | mean nematode size ln(EXT) (ln) ([1]; 10 µM) | mean nematode size ln(EXT) (ln) ([1]; 50 µM) | mean nematode size ln(EXT) (ln) ([1]; 100 µM) | mean nematode size ln(EXT) (ln) ([1]; 200 µM) | lowest effective concentration [2] [µM] |
| --- | --- | --- | --- | --- | --- | --- | --- | --- |
| CCCCCCOC(=O)CC(CC(=O)OCCCCCC)(OC(=O)CCC)C(=O)OCCCCCC [N-Butyryl tri-N-hexyl citrate] | 5.93 | 5.96 | 5.91 | 5.98 | 6.15 | 5.75 | 5.83 | > 200 |
| O=c1ccc2ccccc2o1 [Coumarin] | 5.93 | 5.92 | 5.85 | 5.93 | 5.94 | 5.95 | 5.8 | > 200 |
| CNC(=O)O/N=C/C(C)(C)SC [Aldicarb] | 5.86 | 5.88 | 5.74 | 5.74 | 5.55 | 5.25 | 5.75 | > 200 |
| Cc1nc(N(C)C)nc(OC(=O)N(C)C)c1C [Pirimicarb] | 5.83 | 5.88 | 6.03 | 5.99 | 6.32 | 5.99 | 5.96 | > 200 |
| C=CC(=O)NCNC(=O)C=C [N,N'-Methylenebis(acrylamide)] | 6.06 | 6.06 | 6.06 | 6.01 | 6 | 6.05 | 5.83 | > 200 |
| O=C1CCCO1 [4-Butyrolactone] | 6.1 | 6.08 | 6 | 6.1 | 6.09 | 6.02 | 5.81 | > 200 |
| O=NO [Sodium nitrite] | 6 | 6.02 | 6.05 | 6.03 | 6.08 | 6.04 | 5.75 | > 200 |
| O=c1c(O)c(-c2ccc(O)c(O)c2)oc2cc(O)cc(O)c12 [2-(3,4-Dihydroxy-phenyl)-3,5,7-trihydroxy-chromen-4-one] | 5.8 | 5.86 | 5.86 | 5.79 | 4.75 | 5.87 | 5.75 | > 200 |
| Nc1nc(Cl)nc2c1ncn2[C@H]1C[C@H](O)[C@@H](CO)O1 [2-Chloro-2'-deoxyadenosine] | 5.92 | 5.87 | 5.91 | 5.87 | 5.88 | 5.88 | 5.7 | > 200 |
| Clc1ccccc1Cl [1,2-Dichlorobenzene] | 5.95 | 5.9 | 5.9 | 6 | 6.02 | 6.04 | 5.68 | > 200 |
| C=CN1CCCC1=O [N-Vinyl-2-pyrrolidone] | 6.07 | 5.85 | 5.84 | 5.87 | 5.89 | 4.87 | 5.82 | > 200 |
| CCCCCCCCOC(=O)c1ccccc1C(=O)OCCCCCCCC [Di-n-octyl phthalate] | 5.93 | 5.87 | 5.9 | 5.85 | 5.88 | 5.83 | 5.83 | > 200 |
| CN(Cc1cnc2nc(N)nc(N)c2n1)c1ccc(C(=O)N[C@@H](CCC(=O)O)C(=O)O)cc1 [Methotrexate] | 5.83 | 5.86 | 5.81 | 5.85 | 5.84 | 5.82 | 5.75 | > 200 |
| CNC(=O)/C=C(\C)OP(=O)(OC)OC [Monocrotophos] | 5.81 | 5.76 | 5.74 | 5.78 | 5.79 | 5.77 | 6.07 | > 200 |
| CN(C)CCCN(C)CCCN(C)C | 5.82 | 5.85 | 5.88 | 5.85 | 5.81 | 5.89 | 5.96 | > 200 |
| CCNc1ccccc1 [N-Ethyl aniline] | 5.68 | 5.67 | 5.68 | 5.67 | 5.52 | 5.56 | 5.67 | > 200 |
| CCOC(=O)c1ccccc1C(=O)OCC [Diethyl phthalate] | 5.92 | 5.85 | 5.82 | 5.76 | 5.94 | 5.81 | 5.79 | > 200 |
| CCOP(=O)(OCC)Oc1cc(C)nc(C(C)C)n1 [Diazoxon] | 6.19 | 6.09 | 6.08 | 6.06 | 6.05 | 6.1 | 5.93 | > 200 |
| O=C(O)c1ccccc1C(=O)OCc1ccccc1 [Benzyl hydrogen phthalate] | 5.72 | 5.73 | 5.79 | 5.84 | 5.73 | 5.67 | 5.74 | > 200 |
| COC(=O)c1ccccc1C(=O)OC [Dimethyl phthalate] | 5.82 | 5.99 | 6.07 | 6.01 | 6.18 | 6.01 | 5.98 | > 200 |
| CCCCCCCCCC [Decane] | 5.95 | 5.8 | 5.91 | 5.8 | 5.87 | 5.83 | 5.75 | > 200 |
| O=P(OCCCl)(OCCCl)OCCCl [Tris(2-chloroethyl) phosphate] | 5.87 | 5.82 | 5.89 | 5.86 | 5.86 | 5.87 | 5.77 | > 200 |
| C=CCc1ccc(O)c(OC)c1 [Eugenol] | 5.89 | 5.9 | 5.93 | 5.98 | 5.91 | 5.87 | 5.77 | > 200 |
| O=C(O)c1cccc(Oc2ccccc2)c1 [3-Phenoxybenzoic acid] | 5.87 | 5.85 | 5.89 | 5.87 | 5.83 | 5.83 | 5.91 | > 200 |
| CNC(=O)Oc1cccc2ccccc12 [Carbaryl] | 5.78 | 5.79 | 5.6 | 5.71 | 5.83 | 5.72 | 5.67 | > 200 |
| NNC(=O)c1ccncc1 [Isoniazid] | 5.78 | 5.82 | 5.77 | 5.64 | 5.82 | 5.88 | 5.65 | 200 |
